Measured values: patent publication US20210024975A1, “METHODS FOR IDENTIFYING INHIBITORS OF LIPID A DEACYLASE AND […] RELATED TO SAME” (UNIVERSITY OF WASHINGTON, priority 2019, published 2021)

System: P. gingivalis 33277 mutants
Test: polymixin B sensitivity of P. gingivalis strains
Format: cell-based, Porphyromonas gingivalis
Details: J5-c5 transposon mutant; similar to the wild-type bacterium

Substance: polymixin B
- polymixin B sensitivity of J5-c5 mutants: resistance
